Reference: patent publication US20160151451A1, “METHOD FOR GENERATING CARDIOMYOCYTES” (Korea Advanced Institute of Science and Technology (KAIST), priority 2014, published 2016)
Counter-ions that a name gives are not always drawn. Like-named read-outs stand apart in the source and are kept apart here.

Key:
[1] = system: mouse ESC-derived Flk1^+ MPCs; assay: Differentiation of mouse ESC-derived Flk1^+ MPCs into cardiomyocytes in OP9 co-culture; format: cell-based; conditions: for optimal dose of reagent, determined by total and relative number of differentiated cTnT^+ cells: dose optimization, FIGS. 2A-D
Description: (§1) For induction of Flk1^+ MPCs, ESCs and iPSCs were cultured without LIF and plated on a 0.1% gelatin-coated dish at cell density 1-1.5×10^3 cells/cm^2 in the differentiation medium (alpha MEM, Invitrogen) with 10% fetal bovine serum (FBS) (Welgene), 2-mercaptoethanol (Invitrogen), L-glutamine (Invitrogen), and antibiotics (Invitrogen), which was changed every 2 days, for 4.5 days. At day 4.5, differentiated ESCs and iPSCs were harvested with 0.25% trypsin-EDTA and antigen recovery was performed in the differentiation medium for 30 min in an incubator. Then, cells were washed using phosphate buffered saline (PBS)/2% FBS and incubated with biotin-conjugated anti-mouse Flk1^+ antibody (clone AVAS 12a1, eBioscience) and […] MicroBeads (Miltenyi Biotec). Flk1^+ MPCs were sorted by AutoMACS Pro Separator (Miltenyi Biotec). For induction of cardioblasts and cardiomyocytes, sorted Flk1^+ MPCs were plated onto the MMC (AG scientific) treated confluent OP9 cells at a density of 5-10×10^3 cells/cm^2. For the induction of cardiomyocytes in a feeder free system, ESCs were plated on a 0.1% gelatin coated dish at cell density 3×10^3 cells/cm^2 without OP9 cells. Cells were cultured in the differentiation medium which was changed every 2 days.
CsA (a gift from Novartis Pharma, Korea), 6-Hydroxy-2,5,7,8-tetramethylchroman-2-carboxylic acid (Trolox, Sigma Aldrich), and EW7197 (Son et al., 2014) were dissolved in dimethyl sulfoxide (DMSO, Sigma Aldrich). Y27632 (Calbiochem) was dissolved in distilled water. Reagents were treated at the time of medium change. DMSO was treated as a control vehicle.
(§2) Differentiating Flk1^+ MPCs on OP9 cells were harvested with 0.25% trypsin-EDTA or dissociation buffer (Invitrogen). […] To analyze cTnT^+ cells, the cells were permeabilized using Cytofix/Cytoperm solution (BD Biosciences) for 15 min. […] After washing in 10% Perm/Wash buffer (BD Biosciences), the cells were incubated for 10 min with Cy5-conjugated anti-mouse IgG antibody (Invitrogen). The cells were washed with 10% Perm/Wash buffer (BD Biosciences) and then analyzed. In live cell analysis and sorting, dead cells were excluded using 4,6-diamidino-2-phenylindole (DAPI, Invitrogen) and OP9 cells were excluded from Flk1^+ MPCs by gating in flow cytometry. The differentiated cardiomyocytes were sorted using αMHC-GFP. Analyses and sorting were performed by FACS Aria II (Beckton Dickinson). Data were analyzed using FlowJo Version 7.5.4 software (TreeStar).
The cells were fixed with 2% paraformaldehyde (PFA) and blocked with 5% goat (or donkey) serum in PBST (0.1% Tween 20 in PBS) for 1 hr at room temperature (RT). […] After being washed with PBST 3 times, the cells were incubated for 2 hr at room temperature with the following secondary antibodies: Cy3-conjugated anti-mouse IgG antibody (Invitrogen), FITC-conjugated anti-rat IgG (Jackson ImmunoResearch), and Cy3-conjugated anti-rabbit IgG (Jackson ImmunoResearch) antibodies. After being stained with the antibodies, the cells were mounted in fluorescent mounting medium (DAKO). Nuclei were stained with 4,6-diamidino-2-phenylindole (DAPI, Invitrogen). Immunofluorescence staining of mitochondria was performed using MitoTracker Orange CMTMRos probe (Invitrogen) and cells were incubated with probe for 30 to 60 min at 37° C. in serum free medium before fixation. Immunocytochemistry stained images were obtained using an LSM510 confocal fluorescence microscope (Carl Zeiss). Live images of cardiomyocyte differentiation process and αMHC GFP^+ cardiomyocytes were obtained using Axiovert 200M microscope (Carl Zeiss) equipped with AxioCam MRm (Carl Zeiss). Images were analyzed using Image J software (http://imagej.nih.gov/ij/, 1.47V, NIH, USA). Phase-contrast images including beating cardiomyocytes were obtained using an Infinity X digital camera and DpxView LE software (DeltaPix).

[2] = system: mouse ESC-derived Flk1^+ MPCs; assay: Induction of PDGFRα^+Flk1^− cardioblasts (PCBs) from mouse ESC-derived Flk1^+ MPCs; format: cell-based; conditions: each reagent of CsAYTE alone; FIGS. 11A, 11B
Description: as §1
Differentiating Flk1^+ MPCs on OP9 cells were harvested with 0.25% trypsin-EDTA or dissociation buffer (Invitrogen). […] To analyze cTnT^+ cells, the cells were permeabilized using Cytofix/Cytoperm solution (BD Biosciences) for 15 min. […] The cells were washed with 10% Perm/Wash buffer (BD Biosciences) and then analyzed. […] Data were analyzed using FlowJo Version 7.5.4 software (TreeStar).
The cells were fixed with 2% paraformaldehyde (PFA) and blocked with 5% goat (or donkey) serum in PBST (0.1% Tween 20 in PBS) for 1 hr at room temperature (RT). […] Immunocytochemistry stained images were obtained using an LSM510 confocal fluorescence microscope (Carl Zeiss). […] Images were analyzed using Image J software (http://imagej.nih.gov/ij/, 1.47V, NIH, USA). […]

PCBs = assay: PCB-derived cardiomyocyte differentiation with indicated reagents after PCB induction, OP9 co-culture; format: cell-based, mouse; conditions: FIGS. 14B, 14C
Description: as §2

[3] = system: voltage-gated Na^+ channels; format: cell-based, mouse
T-type Ca^2+ channels = assay: Voltage-clamp recording of T-type Ca^2+ current (ICaT) in M^+CMs; format: cell-based, mouse; conditions: 1 μM
[4] = system: delayed rectifying K^+ channels
ROCK = format: cell-based
Text: The meaning of “Rho-associated protein kinase (ROCK) inhibitor” is well known in the art. An assay for determining a ROCK suppressor or ROCK inhibitor can include for example the following method. ROCKs were discovered as the first effectors of Rho and they induce the formation of stress fibers and focal adhesions by phosphorylating MLC (myosin light chain). Therefore, an assay for determining ROCK suppression is confirming MLC phosphorylation inhibition such as by Western blotting.

[5] = in combination with CsA, data not shown

## O=S(=O)(c1cccc2c(I)cccc12)N1CCCNCC1 [ML7]
[1]; [5]
  effect on Flk1^+ MPC differentiation into cTnT^+ cells: rather inhibited or did not affect

## CCCCCCOC(=O)[C@]1(O)C[C@@H]2O[C@@]1(C)n1c3ccccc3c3c4c(c5c6ccccc6n2c5c31)C(=O)NC4 [KT5720]
[1]; [5]
  effect on Flk1^+ MPC differentiation into cTnT^+ cells: rather inhibited or did not affect

## Cc1cccc(-c2[nH]c(CNc3ccccc3F)nc2-c2ccc3ncnn3c2)n1 [EW7197, N-[[4-([1,2,4]triazolo[1,5-a]pyridin-6-yl)-5-(6-methylpyridin-2-yl)-1H-imidazol-2-yl]methyl]-2-fluoroaniline]
[1]
  optimal dose of reagent, determined by total and relative number of differentiated cTnT^+ cells: 1 µg/mL
[2]
  Flk1^+ MPC differentiation into PCBs by each reagent: 45.3%
PCBs
  effect of omission of the reagent from CsAYTE on population of cTnT^+ and αMHC-GFP^+ cells: slightly increased

## CCC(=O)NC[C@H](Cc1ccc(OCCc2nc(-c3ccccc3)oc2C)cc1)N/C(C)=C\C(=O)c1ccc(C(F)(F)F)cc1 [GW6471]
[1]; [5]
  effect on Flk1^+ MPC differentiation into cTnT^+ cells: rather inhibited or did not affect

## c1cc(-c2cnn3cc(-c4ccc(OCCN5CCCCC5)cc4)cnc23)ccn1 [Compound C]
[1]; [5]
  effect on Flk1^+ MPC differentiation into cTnT^+ cells: rather inhibited or did not affect

## NC1=N[C@H](O)[C@H]2[C@H]3O[C@]4(O)O[C@@H]([C@@H](O)[C@@]2(N1)[C@@H]4O)[C@]3(O)CO [TTX, tetrodotoxin]
[3]
  voltage gated Na^+ current (INa): inhibited

## COCC(=O)O[C@]1(CCN(C)CCCc2nc3ccccc3[nH]2)CCc2cc(F)ccc2[C@@H]1C(C)C [mibefradil]
T-type Ca^2+ channels
  T-type Ca^2+ currents (ICaT): inhibited

## Cc1c[nH]c(-c2cnc(NCCNc3ccc(C#N)cn3)nc2-c2ccc(Cl)cc2Cl)n1 [CHIR99021]
[1]; [5]
  effect on Flk1^+ MPC differentiation into cTnT^+ cells: rather inhibited or did not affect

## Cc1c(C)c2c(c(C)c1O)CCC(C)(C(=O)O)O2 (stereo not drawn) [Trolox, 6-hydroxy-2,5,7,8-tetramethylchroman-2-carboxylic acid]
[1]
  optimal dose of reagent, determined by total and relative number of differentiated cTnT^+ cells: 400 µM
[2]
  Flk1^+ MPC differentiation into PCBs by each reagent: 19.3%

## CC[N+](CC)(CC)CC [TEA, tetraethylammonium]
[4]
  delayed rectifier K^+ current (IK): inhibited

## Cn1c2ccccc2c2c3c(c4c5ccccc5n(CCC#N)c4c21)CNC3=O [Go6976]
[1]; [5]
  effect on Flk1^+ MPC differentiation into cTnT^+ cells: rather inhibited or did not affect

## COC(=O)[C@@]1(OC)C[C@H]2O[C@]1(C)n1c3ccccc3c3c4c(c5c6ccccc6n2c5c31)C(=O)N(C)C4 [KT5823]
[1]; [5]
  effect on Flk1^+ MPC differentiation into cTnT^+ cells: rather inhibited or did not affect

## COc1cccc(-c2cc(=O)c3ccccc3o2)c1N [PD98059]
[1]; [5]
  effect on Flk1^+ MPC differentiation into cTnT^+ cells: rather inhibited or did not affect

## NC(=O)c1ncn([C@@H]2O[C@H](CO)[C@@H](O)[C@H]2O)c1N [AICAR]
[1]
  effect on Flk1^+ MPC differentiation into cTnT^+ cells: rather inhibited or did not affect

## C[C@H](NC(=O)Cc1cc(F)cc(F)c1)C(=O)N[C@H](C(=O)OC(C)(C)C)c1ccccc1 [DAPT]
[1]; [5]
  effect on Flk1^+ MPC differentiation into cTnT^+ cells: rather inhibited or did not affect

## C[C@@H](N)[C@H]1CC[C@H](C(=O)Nc2ccncc2)CC1 [Y27632, [(+)-(R)-trans-4-(1-aminoethyl)-N-(4-pyridyl)cyclohexanecarboxamidedihydrochloride]]
[1]
  optimal dose of reagent, determined by total and relative number of differentiated cTnT^+ cells: 10 µM
[2]
  Flk1^+ MPC differentiation into PCBs by each reagent: 22.0%
ROCK
  MLC phosphorylation in Flk1^+ MPCs during differentiation: inhibits
